Data reported in publication PMC4183699, “A Relay Network of Extracellular Heme-Binding Proteins Drives C. albicans Iron Acquisition from Hemoglobin” (PLoS Pathogens, 2014).

T1: Rbt5(23–219)-Myc-6×His (C. albicans, UniProt Q59UT4 23-219)
T1 construct: Rbt5, C. albicans CFEM protein, residues 23-219: from the predicted signal peptide cleavage site to the predicted GPI anchor addition site; RBT5 nucleotides +67 to +657 cloned EcoRI-XbaI into pPICZalphaA (KB2258); Apo-protein (heme removed with 3 M imidazole); The vector pPICZalphaA may leave a few residues at the N-terminus after the alpha-factor signal is cut; also called rRbt5; recombinant …
T1 sequence: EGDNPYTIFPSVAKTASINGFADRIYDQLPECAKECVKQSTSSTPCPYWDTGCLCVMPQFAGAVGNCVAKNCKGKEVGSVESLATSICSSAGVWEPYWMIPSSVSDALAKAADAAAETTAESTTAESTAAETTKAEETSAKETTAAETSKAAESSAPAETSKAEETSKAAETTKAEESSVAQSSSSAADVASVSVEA

B1: Pga7(18–195)-Myc-6×His (domain or fragment)
chain: NFGTYPKVPKTASINGFADPIYDLLPDCAKECVKFSTSNTPCPYWDTGCFCVMPQWAGLVGQCVAQKCKGEDVASARFLATSLCSVVGANTWMMPASISSMLSTAAGDAKEVTTIEGKTAKSWVTAPGSAAGSVVSETGSASETGSSESAQSTTTGSSSTGSSSTDSSSSSSSSPSSS
notes: Pga7, C. albicans CFEM protein, residues 18-195: from the predicted signal peptide cleavage site to the predicted GPI anchor addition site; PGA7 nucleotides +52 to +585 cloned EcoRI-XbaI into pPICZalphaA (KB2259); Used as apo-protein (heme removed) or as holo-protein (loaded with heme, not covalent); both are this one construct; The vector pPICZalphaA may leave a few residues at the N-terminus …

How the values were obtained:
[1] = target: T2, Rbt5 (Candida albicans, UniProt Q59UT4); test: ITC; also hemin-agarose pull-down, size exclusion co-elution, Soret peak; type: binding
T2 construct: Rbt5_23–219 (C-terminal Myc-6×His, expressed in Pichia pastoris)

[2] = target: T3, Pga7 (Candida albicans, UniProt Q59UT5); test: ITC; also Soret-shift UV-Vis titration ([…]), 1H NMR, hemin-agarose pull-down; type: binding
T3 construct: Pga7_18–195 (C-terminal Myc-6×His, expressed in Pichia pastoris)

[3] = target: T1, Rbt5(23–219)-Myc-6×His; test: SPR; Biacore T200; apo-Pga7(18–195), apo-Rbt5(23–219) and apo-Rbt5(23–219) D72A immobilised on a CM-5 chip by amine chemistry; 3 µM holo-Pga7(18–195) (with heme) injected for 60 sec; double-blanked against an empty cell and buffer; settings: both partners purified

Row | Molecule | Kd [1] | Kd [2] | binding result [3]
1 | C=CC1=C(C)C2=Cc3c(C=C)c(C)c4[n]3[Fe]([Cl])[n]3c(c(C)c(CCC(=O)O)c3=CC3=NC(=C4)C(C)=C3CCC(=O)O)=CC1=N2 [hemin] | 5.4 µM | 0.065 µM | 
2 | B1 |  |  | binds
